Reference: ChEMBL document CHEMBL5291721, “A preclinical secondary pharmacology resource illuminates target-adverse drug reaction associations of marketed drugs” (Nat Commun, 2023)

What was measured:
Endothelin-1 receptor = target: T1, Endothelin-1 receptor (Homo sapiens, UniProt P25101)
T1 sequence (P25101 whole entry): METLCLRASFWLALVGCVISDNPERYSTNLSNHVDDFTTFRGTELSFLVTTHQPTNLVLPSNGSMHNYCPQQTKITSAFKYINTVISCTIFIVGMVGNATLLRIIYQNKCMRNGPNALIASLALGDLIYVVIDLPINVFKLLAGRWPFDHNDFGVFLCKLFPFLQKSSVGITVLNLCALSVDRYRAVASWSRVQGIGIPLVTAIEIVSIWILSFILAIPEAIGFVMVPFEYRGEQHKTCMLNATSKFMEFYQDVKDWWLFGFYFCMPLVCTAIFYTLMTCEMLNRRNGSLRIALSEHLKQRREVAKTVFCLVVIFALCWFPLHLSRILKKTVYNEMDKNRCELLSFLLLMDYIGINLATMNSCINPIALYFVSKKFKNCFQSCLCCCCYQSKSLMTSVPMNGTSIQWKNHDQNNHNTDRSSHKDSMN

[1] = target: T2, Alpha-2B adrenergic receptor (Homo sapiens, UniProt P18089)
T2 sequence (P18089 whole entry): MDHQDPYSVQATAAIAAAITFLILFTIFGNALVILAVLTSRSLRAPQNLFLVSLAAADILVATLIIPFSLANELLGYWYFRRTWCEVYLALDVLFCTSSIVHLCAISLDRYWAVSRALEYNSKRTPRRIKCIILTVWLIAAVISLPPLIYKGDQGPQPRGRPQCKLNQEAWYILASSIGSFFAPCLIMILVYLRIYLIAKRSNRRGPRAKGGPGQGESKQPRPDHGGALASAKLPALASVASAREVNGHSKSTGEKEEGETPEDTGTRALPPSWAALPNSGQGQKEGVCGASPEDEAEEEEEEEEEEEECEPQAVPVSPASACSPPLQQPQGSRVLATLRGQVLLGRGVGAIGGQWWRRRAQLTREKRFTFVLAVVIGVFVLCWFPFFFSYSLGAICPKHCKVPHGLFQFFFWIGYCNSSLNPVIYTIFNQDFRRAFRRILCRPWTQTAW

[2] = target: Glutamate receptor ionotropic, NMDA 1 (Rattus norvegicus, UniProt P35439)
Note: assay procedure not described here.

AC50 (Endothelin-1 receptor): > 30 µM
AC50 [1]: > 30 µM
AC50 [2]: > 30 µM
Sequence: HYDROXOCOBALAMIN
